Reference: paper PMC6121260, “Sulfated Metabolites of Flavonolignans and 2,3-Dehydroflavonolignans: Preparation and Properties” (International Journal of Molecular Sciences, 2018)
Marks after values point to notes of the source that are not given here.

Tests used:
[1] = target: T1, aryl sulfotransferase from rat liver (AST IV) (Rattus norvegicus, UniProt P17988); assay: Substrate specificity of AST IV (whole E. coli cells, p-NPS donor); type: in vitro ADME; design: key: +: isolated sulfated product(s) and/or release of p-nitrophenol (p-NP); –: no formation of p-NP and/or isolated sulfated products; conditions: whole E. coli cells expressing AST IV, 37 °C, 72 h
T1 construct: made in house; host or cells: E. coli BL21 (DE3) Gold (whole cells used as catalyst)
Method: The plasmid bearing astIV gene was kindly provided by Prof. L. Elling, RWTH Aachen, Germany. The enzyme was expressed in E. coli BL21 (DE3) Gold as described, with modifications reported in our previous work. Whole E. coli cells producing the enzyme, freshly prepared according to the literature, were employed in the biotransformation experiments as a catalyst.
Silybin, silybin A, silybin B, silychristin, and silydianin (separately, each 50 mg, 0.104 mmol) and p-nitrophenyl sulfate (p-NPS, 35 mg, 0.136 mmol; Sigma-Aldrich, St. Louis, MO, USA) were dissolved in 3 mL DMSO, and 2 g (wet based) of whole cells expressing AST IV resuspended in K-phosphate buffer (pH 7.5, 17 mL) were added. The reaction mixture was incubated on a rotary shaker at 37 °C for 24 h. The cells were then removed by centrifugation (30 min, 5000 rpm, 5404 R Eppendorf, Germany), a new portion of fresh cells (2 g in 15 mL, wet based, resuspended in K-phosphate buffer) were added to the supernatant and incubated for 24 h. This step was repeated once more with a total reaction time of 72 h. The reaction was monitored by HPLC and after 72 h, the reaction mixtures, containing the sulfated product(s), were purified by preparative HPLC employing Asahipak GS-310 20F (Shodex, Tokyo, Japan) column with isocratic elution with 100% methanol. The fraction containing the putative sulfated product(s) was evaporated, dissolved in 1 mL of 80% methanol, and loaded onto a Sephadex LH-20 column (15 g dry weight, 12 mm i.d.) packed and eluted with 80% methanol. Only one sulfated product was obtained; silybin B 20-O-sulfate (14.5 mg, 0.03 mmol, yield 25%), whose identity was confirmed by comparison with previously published data.

DPPH radical scavenging = type: biochemical; conditions: mean ± standard error
Method: (§1) N,N-dimethyl-p-phenylenediamine (DMPD) and 2,2′-azino-bis(3-ethylbenzothiazolin-6-sulfonic acid (ABTS) cation radical scavenging and ferric reducing antioxidant power (FRAP) were measured using kits from Bioquochem (Llanera-Asturias, Spain). Antiradical activity by 2,2-diphenyl-1-picrylhydrazyl radical scavenging assay, reducing capacity using Folin–Ciocalteau reagent (FCR), and anti-lipoperoxidant activity using inhibition of lipid peroxidation of rat liver microsomes induced by tert-butyl hydroperoxide were determined as described previously with modifications described in detail in our previous research.

[2] = Inhibition of lipoperoxidation (Lpx) induced by tert-butyl hydroperoxide; type: biochemical; conditions: rat liver microsomal membranes, mean ± standard error
Method: as §1

[3] = Folin–Ciocalteu reagent (FCR) reduction; type: biochemical; conditions: Folin–Ciocalteau reagent reduction, gallic acid equivalents, mean ± standard error
Method: as §1

[4] = Log p, octan-1-ol / phosphate buffer partition; type: physicochemical; conditions: octan-1-ol / 6.6 mM phosphate buffer pH 7.4, 25 °C
Method: The hydrophobicity of the compounds was determined by measuring their partition coefficient P in a mixture of two immiscible phases—octan-1-ol and 6.6 mM phosphate buffer pH 7.4. Stock solutions (0.5 mM) were prepared in octan-1-ol (parent compounds) and in the buffer (sulfated compounds). The stock solutions (150 µL) were mixed with 150 µL of the immiscible phase in microcentrifuge tubes (1.5 mL); shaken for 2 h (750 rpm, 25 °C); and after incubation, the phases were separated. Water phases were diluted 1:1 with the mobile phase (acetonitrile/deionized water/HCO2H, 5:95:0.1; v/v) and analyzed by HPLC using the gradient G3 (see Section 3.1.3). Octan-1-ol phases were evaporated in the stream of air (70 °C), then dissolved in 10 µL of DMSO, and mixed with 90 µL of mobile phase and analyzed by HPLC. The log p values were calculated from the respective peak heights (h) using the formula log p = log(hoctanol/hbuffer). For comparison, log p values were calculated using the Molinspiration property engine v2016.10 (http://www.molinspiration.com, Molinspiration Cheminformatics, Slovensky Grob, Slovakia) (access on 26th October 2017).

[5] = system: NAD(P)/quinone oxidoreductase 1 (NQO1) activity in Hepa1c1c7 cells; assay: NQO1 activity in Hepa1c1c7 cells (Nrf2 pathway); type: cell-based, murine; conditions: 48 h; for NQO1 activity, fold versus control: 50 µM
Method: The murine hepatoma Hepa1c1c7 cell line (ECACC, Salisbury, UK) was cultured in minimum essential medium α (M0894, Sigma-Aldrich, St. Louis, MO, USA), supplemented with 2.2 g/L NaHCO3 and 10% heat- and charcoal-treated fetal bovine serum (Biochrom, Berlin, Germany), and maintained at 37 °C in a humidified atmosphere containing 5% CO2. For all experiments, cells were seeded onto 96-well plates at 1 × 10^4 cells/well. After 24 h of stabilization, cells were treated for 48 h with 0.1% (v/v) DMSO (negative control), 2.5 µM sulforaphane (positive control; Sigma-Aldrich, St. Louis, MO, USA), or with the tested compounds in fresh culture medium. After the treatment, the activity of NQO1 was determined spectrophotometrically as described previously. Cells were washed with phosphate-buffered saline (PBS) and lysed with 75 µL of digitonin solution (0.8 g/L digitonin, 2 mM EDTA, pH 7.8) by shaking on an orbital shaker for 20 min at room temperature. A part of the cell lysate (20 µL) was used to determine the protein content. The remaining lysate (55 µL) was mixed with 200 µL of 0.5 M Tris-Cl buffer containing 10% (w/v) bovine serum albumin, 1.5% (v/v) Tween-20, 7.5 mM FAD, 150 mM glucose-6-phosphate, 2 U/mL glucose-6-phosphate dehydrogenase (Roche Diagnostics, Mannheim, Germany), 50 mM NADP^+, 25 mM menadione, and 0.7 mM 3-(4,5-dimethylthiazol-2-yl)-2,5-diphenyltetrazolium bromide (MTT). The mixture was incubated for 5 min at room temperature and the reaction was stopped with 50 µL of dicumarol suspension (0.3 mM dicumarol, 5 mM potassium phosphate, 0.5% (v/v) DMSO). The absorbance of the reduced MTT corresponding to the activity of NQO1 was measured at 610 nm on a spectrophotometric plate reader. The absorbance values were normalized to the protein content and used for the calculation of fold changes versus the control.

[6] = DMPD+ cation radical scavenging; type: biochemical; conditions: vitamin C equivalents, mean ± standard error
Method: as §1

[7] = ABTS+ cation radical scavenging; type: biochemical; conditions: vitamin C equivalents, mean ± standard error
Method: as §1

[8] = Ferric reducing antioxidant power (FRAP); type: biochemical; conditions: equivalents of Fe^2+, mean ± standard error
Method: as §1

T1 sequence (P17988 whole entry): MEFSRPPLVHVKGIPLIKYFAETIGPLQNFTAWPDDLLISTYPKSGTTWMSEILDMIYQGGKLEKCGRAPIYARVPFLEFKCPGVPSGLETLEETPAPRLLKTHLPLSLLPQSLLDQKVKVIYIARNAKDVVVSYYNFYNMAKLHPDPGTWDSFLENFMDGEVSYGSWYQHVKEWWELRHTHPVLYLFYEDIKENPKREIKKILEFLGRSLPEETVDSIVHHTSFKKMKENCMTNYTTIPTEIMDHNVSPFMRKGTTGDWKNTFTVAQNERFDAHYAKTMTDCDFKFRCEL

Row | Compound | Formation of p-NP [1] | IC50 (DPPH radical scavenging) [µM] | IC50 [2] [µM] | FCR [GAE] [3] | logP at 2 h [4] | NQO1 activity, fold versus control [5] [fold] | DMPD^+ [CE] [6] | ABTS^+ [CE] [7] | FRAP [Fe^2+] [8] | IC50 (DPPH radical scavenging; listed as 2,3-dehydrosilychristin monosulfate) [µM] | NQO1 activity, fold increase compared with the control ([5]; 2.5 µM, positive control) [fold] | FCR [GAE] ([3]; listed as silybin sulfates B) | FCR [GAE] ([3]; listed as silybin sulfates A) | DMPD^+ [CE] ([6]; listed as 2,3-dehydrosilybin disulfate) | FRAP [Fe^2+] ([8]; listed as 2,3-dehydrosilybin-7,20-di-O-sulfate) | IC50 (DPPH radical scavenging; listed as 2,3-dehydrosilybin) [µM] | FCR [GAE] ([3]; listed as 2,3-dehydrosilybin) | FRAP [Fe^2+] ([8]; listed as 2,3-dehydrosilybin) | FCR [GAE] ([3]; listed as 2,3-dehydrosilychristin)
1 | COc1cc([C@@H]2[C@H]3CO[C@@]4(O)C(=O)[C@@H]2C=C([C@H]2Oc5cc(O)cc(O)c5C(=O)[C@@H]2O)[C@@H]34)ccc1O [Silydianin] | + ^a |  |  |  |  |  |  |  |  |  |  |  |  |  |  |  |  |  | 
2 | Cc1c(C)c2c(c(C)c1O)CCC(C)(C(=O)O)O2 (stereo not shown) [Trolox, reference compound] |  | 2.9 ± 0.1 | 32.7 ± 2.4 | 0.33 ± 0.00 ^k GAE |  |  |  |  |  |  |  |  |  |  |  |  |  |  | 
3 | COc1cc(C2Oc3cc(-c4oc5cc(O)cc(O)c5c(=O)c4O)ccc3OC2CO)ccc1OS(=O)(=O)O (stereo not shown) [2,3-Dehydrosilybin-20-O-sulfate] |  | 14.1 ± 0.5 | 13.7 ± 0.4 | 1.03 ± 0.01 ^m GAE | -2.16 | 1.3 | 0.97 ± 0.02 ^n CE | 0.71 ± 0.03 ^j CE | 1.46 ± 0.03 ^r Fe^2+ |  |  |  |  |  |  |  |  |  | 
4 | COc1cc(C2Oc3c(O)cc(-c4oc5cc(O)cc(O)c5c(=O)c4O)cc3C2CO)ccc1OS(=O)(=O)O (stereo not shown) [2,3-Dehydro-silychristin-19-O-sulfate, 2,3-Dehydrosilychristin-19-O-sulfate] |  | 7.9 ± 0.3 | 12 ± 1.8 | 1.44 ± 0.01 ^l GAE | -2.24 | 1.4 | 1.02 ± 0.04 ^n CE | 0.62 ± 0.02 ^n CE | 1.44 ± 0.04 ^r Fe^2+ | 8 |  |  |  |  |  |  |  |  | 
5 | COc1cc(C2Oc3c(O)cc([C@H]4Oc5cc(O)cc(O)c5C(=O)[C@@H]4O)cc3C2CO)ccc1OS(=O)(=O)O (stereo partly shown) [Silychristin-19-O-sulfate] |  | 587 ± 11 | 134 ± 2 | 0.80 ± 0.11 ^m GAE | -2.25 | 1.3 | 1.56 ± 0.08^o CE | 0.62 ± 0.03 ^k CE | 0.05 ± 0.01 ^q Fe^2+ |  |  |  |  |  |  |  |  |  | 
6 | C[S+]([O-])CCCCN=C=S (stereo not shown) [sulforaphane, reference compound] |  |  |  |  |  |  |  |  |  |  | 4.3 |  |  |  |  |  |  |  | 
7 | COc1cc([C@@H]2Oc3cc([C@H]4Oc5cc(O)cc(O)c5C(=O)[C@@H]4O)ccc3O[C@H]2CO)ccc1OS(=O)(=O)O [Silybin B 20-O-sulfate] |  | > 2500 | > 1000 | 0.16 ± 0.02 GAE | -2.34 | 0.9 | 0.99 ± 0.01 ^n CE | 0.04 ± 0.00 CE | 0.01 ± 0.00 ^p Fe^2+ |  |  | 0.16 |  |  |  |  |  |  | 
8 | COc1cc([C@H]2Oc3cc([C@H]4Oc5cc(O)cc(O)c5C(=O)[C@@H]4O)ccc3O[C@@H]2CO)ccc1OS(=O)(=O)O [Silybin A 20-O-sulfate] |  | > 2500 | > 1000 | 0.08 ± 0.01 GAE | -1.65 | 1.2 | 0.98 ± 0.01 ^n CE | 0.02 ± 0.00 CE | 0.01 ± 0.00 ^p Fe^2+ |  |  |  | 0.08 |  |  |  |  |  | 
9 | COc1cc(C2Oc3cc(-c4oc5cc(OS(=O)(=O)O)cc(O)c5c(=O)c4O)ccc3OC2CO)ccc1OS(=O)(=O)O (stereo not shown) [2,3-Dehydrosilybin-7,20-di-O-sulfate] |  | 106 ± 4 | 90.7 ± 3.3 | 0.95 ± 0.01 ^m GAE | < -3 | 1.2 | 1.90 ± 0.10 CE | 0.55 ± 0.03 CE | 1.61 ± 0.04 Fe^2+ |  |  |  |  | 1.90 | 1.61 |  |  |  | 
10 | COc1cc(C2Oc3cc(-c4oc5cc(O)cc(O)c5c(=O)c4O)ccc3OC2CO)ccc1O (stereo not shown) [2,3-Dehydrosilybin, reference compound] |  | 13.3 ± 0.6 | 10.4 ± 0.4 | 1.51 ± 0.09 ^l GAE | > 3 |  | 1.02 ± 0.02 ^n CE | 0.77 ± 0.01 ^j CE | 0.81 ± 0.02 Fe^2+ |  |  |  |  |  |  | 13 to 14 | 1.50 | 0.81 | 
11 | COc1cc(C2Oc3c(O)cc(-c4oc5cc(O)cc(O)c5c(=O)c4O)cc3C2CO)ccc1O (stereo not shown) [2,3-Dehydrosilychristin, reference compound] |  | 8.6 ± 0.8 | 14.6 ± 0.4 | 1.58 ± 0.04 ^l GAE | > 3 |  | 0.97 ± 0.02 ^n CE | 0.93 ± 0.03 ^l CE | 0.28 ± 0.01 Fe^2+ |  |  |  |  |  |  |  |  |  | 1.58
